Reference: US5576174A, “Catalytic antibody with primary amine cofactor” (The Scripps Research Institute, priority 1995, dated 1996)

What was measured:
[1] = test system: catalytic antibody 72D4 (anti-2, monoclonal antibody raised against quaternary piperidinium hapten 2); assay: Antibody 72D4 catalysed aldol addition of acetone to aldehyde 10a giving 11a, amine 7 as cofactor (RP-HPLC); assay type: biochemical; conditions: for Km: random bimolecular model for amine 7 and acetone; for effective molarity kcat/kapp (7): versus background reaction catalysed by 7 alone, aldehyde 10a at 200 mM
Protocol: The aldol reaction of 10a and acetone to 11a with amine 7 as cofactor was followed by direct measurement of the formation of 11a by reverse-phase HPLC. The observed background reaction was first order in acetone (0.5% to 10% v/v) and aldehyde 10a (100-2000 mM), and was also first order in catalyst, either the amine cofactor 7 (50-1500 mM) as free base or hydroxide. The corresponding rate constants are kapp (7) (third order) and kapp (OH^-) (second order) for the apparent rate constant for each process at different pH, and k(7) and kOH^- are the third order rate constants for catalysis by amine 7 as free base and hydroxide, respectively (FIG. 1).
For acetone and aldehyde 10a, the background kuncat is the second order rate constant of their apparent bimolecular reaction, catalyzed by both hydroxide and amine 7 ([7]=0.2 mM and 0.4 mM, respectively).
Aldehydes 10a-10e were used as 25 mM stock solutions in 1:1 acetonitrile/water of the RP-HPLC purified samples. Cofactor 7 was used as 25 mM stock solution in pure water of the RP-HPLC purified trifluoroacetate salt. Antibody 72D4 was purified to homogeneity (SDS PAGE) by ion exchange and Protein G chromatography as described before,^4a at 8-12 mg/mL stock solutions in either bicine (50 mM, pH 8.0) or phosphate (50 mM, pH 7.4) with 100 mM NaCl.
The setup for the kinetics of FIG. 2 is representative: a stock solution (1.8 mL) containing the antibody ([…]) and acetone (1.11% v/v) in 50 mM bicine, 100 mM NaCl, pH 8.0 was separated into four portions of […]. To each was added 3.6 mL of a 25 mM stock solution of each of the aldehydes 10a to 10d. Each […] portion was further separated into four 90 mL portions and 10 mL of solutions of amine 7 in 50 mM bicine, 100 mM NaCl (1 mM, 2 mM, 4 mM, 8 mM) were added. Finally, 50 mL of each 100 mL sample was added to 0.5 mL of a 25 mM stock solution of hapten 12 in water. In each manipulation, the samples were vigorously shaken using a Vortex shaker to ensure homogeneity.

[2] = test system: catalytic antibody 72D4 (anti-2, monoclonal antibody raised against quaternary piperidinium hapten 2); assay: Antibody 72D4 catalysed formation of α-aminonitrile 17 from amine 7, acetone and cyanide; assay type: biochemical
Protocol: Conditions: 50 mM bicine, 0.2M NaCN, pH 9.0, 20° C. […] The reaction was initiated by addition of a concentrated stock solution of either amine 7 or buffered NaCN (no difference was noted). As above, pairs of identical antibody solutions, with and without hapten 12 as inhibitor, were used for measuring the background and catalyzed reaction rates, respectively. 15 mL samples were quenched at 45 sec intervals by mixing with 15 mL 0.5N TFA in water, immediately frozen, and later analyzed by RP-HPLC (C-18 as above, 92.5% H2 O, 7.5% CH3 CN, tR (17)=7.8 minutes) against an internal standard (4-hydroxy-benzoic acid, tR =9.4 minutes). […] The background rate kuncat was derived from the inhibited samples (V vs. [S], 6 points, r^2 =1.0). KM and Vmax were obtained from the Lineweaver-Burk plot of 1/V vs. 1/[S] as above (50, 100, 200, 400, 800, 1600 mM 7, 6 points, r^2 =0.98).

For `CC(=O)Nc1ccc(CC(C)C=O)cc1` (racemic) [aldehyde 10a, 4-(3'-oxo-2'-methyl-prop-1'-yl)-acetanilide], which “rate acceleration kcat/kuncat (aldehyde 10a)” value ([1]; apparent effective molarity, aldehyde 10a varied, [7]=0.4 mM, table 1) is on record?
Its value is 102 M.

What about the kcat ([1]; pH 8.0, antibody-acetone-amine complex reacting with aldehyde 10a (200 mM fixed)) of the same compound?
Its kcat is 0.014 M⁻¹ s⁻¹.

What about the kcat ([1]; pH 9.0, antibody-acetone-amine complex reacting with aldehyde 10a) of the same compound?
The kcat was 0.053 M⁻¹ s⁻¹.

For `CC(C)=O` [acetone], which “rate acceleration kcat/kuncat (acetone)” value ([1]; apparent effective molarity, acetone varied, [7]=0.2 mM, table 1) is on record?
The value was 123 M.

And the Km ([1]; pH 8.0, 200 mM fixed aldehyde 10a, read-out: KM (acetone))?
Its Km is 19000 µM.

What does the source list for `NCc1ccc(C(=O)NCCO)cc1` [amine 7, N(hydroxyethyl)-4(aminomethyl)-benzamide]?
Km ([1]; pH 8.0, 200 mM fixed aldehyde 10a, read-out: KM (7)): 45 µM; effective molarity kcat/kapp (7) ([1]; pH 8.0): 370 M; Km ([1]; pH 9.0, read-out: KM (7)): 95 µM; effective molarity kcat/kapp (7) ([1]; pH 9): 440 M; rate acceleration kcat/kuncat (cofactor 7) ([1]; specific activation of the cofactor upon binding to the antibody, table 1): 950; kcat ([2]; pH 9.0, 1% v/v acetone, 0.2M CN-, 20° C., amine 7 varied): 0.012 s⁻¹; Km ([2]; pH 9.0, 1% v/v acetone, 0.2M CN-, 20° C., amine 7 varied 50-1600 mM): 130 µM

With `C[N+]1(Cc2ccc(C(=O)NCCO)cc2)CCCCC1` [hapten 12, reference compound] as the compound, how does the “inhibition of catalytic activity by addition of hapten 12” value ([1]; 250 mM hapten 12 in the assay set-up) read?
The value was “quantitatively inhibited”.

What about the “inhibition of catalysis by hapten 12” value ([2]; formation of α-aminonitrile 17) of the same compound?
The value was “quantitatively inhibited”.
